Patent publication US10849976B2, “Compositions and methods for protecting saponin activity” (SarTec Corporation, priority 2016, dated 2020)
Read-outs that look alike come from different tables or passages of the source.

Test system: glucose oxidase
From the text: In addition, a saponin molecule has a few to several glucose units bonded to it, depending on the exact plant from which the saponin is extracted. Each glucose unit bonded to the saponin may have up to four more hydroxy (—OH) groups attached and pointing outward from the glucose ring into the water solution. Glucose concentrations can be measured by an assay that depends on glucose oxidase acting upon glucose. However, glucose oxidase is prevented from acting upon glucose if borate is effectively bound to glucose. Thus, observing a declining amount of glucose as measured using a glucose oxidase based assay is indicative of borate binding to glucose, which in turn, serves as another indication of the efficacy of the saponin-protective agent.
A standard glucose solution was prepared by weighing about 0.9 g of glucose and 0.450 g of NaCl into a 500.0 mL volumetric flask. Reverse osmosis water was added while mixing the reagents to reach the 500 mL total volume. Next, a 40.0 mL portion of the standard glucose solution was added to a 50 mL vial and 0.106 g of sodium borate was successively added resulting in a molar ratio of borate:glucose in a range of 1:1 to 6:1. Glucose levels were measured using a OneTouch Ultra 2 blood glucose meter.
The glucose level for the standard glucose/saline solution was taken both before and after the borate-containing glucose solutions were measured for glucose concentration.

O=BOB(O)OB(O)OB=O [Sodium Borate, sodium borate]
Protection of glucose from oxidation by glucose oxidase (3:1 borate:glucose molar ratio): effectively entirely protected | Glucose Meter Reading (Borate:Glucose molar ratio 1:1, 0.106 sodium borate added): 106 mg/dL | Glucose Meter Reading (Borate:Glucose molar ratio 2:1, 0.212 sodium borate added): 38 mg/dL | Glucose Meter Reading (Borate:Glucose molar ratio 3:1, 0.318 sodium borate added): “Low Glucose < 20 mg/dL” | Glucose Meter Reading (Borate:Glucose molar ratio 6:1, 0.636 sodium borate added): “Error 4”
